For test [1], the system named is Vibrio harveyi. Description: Activation of quorum sensing in Vibrio harveyi upto 100 uM after 7 hrs by luminescence method. The note with it: filed as activator, dose microM <=100, time 7.0 hrs.
Test [2] deals with MDA-MB-231. Description: Synergistic anticancer activity against human MDA-MB-231 cells assessed as reduction in cell viability at 25 uM pretreated for 3 hrs followed by TRAIL stimulation measured after 24 hrs. It is filed as functional. Set-up: unit not given here. The note with it: time 27 hrs.
Test [3] relates to MDA-MB-231. Description: Synergistic anticancer activity against human MDA-MB-231 cells assessed as reduction in cell viability at 50 uM pretreated for 3 hrs followed by TRAIL stimulation measured after 24 hrs. Set-up: unit not given here. The following applies: time 27 hrs. It is filed as functional.
Test [4] has as its system MDA-MB-231. Description: Induction of apoptosis in human MDA-MB-231 cells assessed as increase in cleaved PARP level at 50 uM by Western blot analysis. It is filed as functional, cell-based. Background: In western blotting, separated proteins are transferred to a membrane and probed.
Test [5] is described as follows: Activation of quorum sensing system in Pseudomonas aeruginosa JP1 assessed as increase in pyocyanin production at 100 uM measured after 6 hrs relative to control. The following applies: for fold change (FC): filed as activator.
Test [6] relates to Vibrio harveyi. Description: Activation of quorum sensing in Vibrio harveyi from 10 to 200 uM after 7 hrs by luminescence method. The note with it: filed as activator, dose 10-200 µM.
The target in test [7] is T1, Transcriptional activator protein LasR (Pseudomonas aeruginosa (strain ATCC 15692 / PAO1 / 1C / PRS 101 / LMG12228)) (UniProt P25084).
T1 sequence (whole entry): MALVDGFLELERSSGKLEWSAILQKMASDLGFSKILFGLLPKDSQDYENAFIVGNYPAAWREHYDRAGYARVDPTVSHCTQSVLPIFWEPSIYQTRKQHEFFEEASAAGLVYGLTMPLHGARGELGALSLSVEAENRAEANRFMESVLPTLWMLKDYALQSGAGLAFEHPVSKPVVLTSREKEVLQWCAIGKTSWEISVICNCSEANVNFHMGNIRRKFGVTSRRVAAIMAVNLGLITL
Description: Binding affinity to wild type Pseudomonas aeruginosa LasR expressed in Escherichia coli at 100 uM measured after 6 hrs by luminescence assay. The note with it: filed as activator.

Test [8] relates to Pseudomonas aeruginosa. Description: Binding affinity to Pseudomonas aeruginosa LasR Y56F mutant expressed in Escherichia coli at 100 uM measured after 6 hrs by luminescence assay. The note with it: filed as activator.
The subject of test [9] is Pseudomonas aeruginosa. Description: Binding affinity to Pseudomonas aeruginosa LasR W60F mutant expressed in Escherichia coli at 100 uM measured after 6 hrs by luminescence assay. The following applies: filed as activator.
Test [10] concerns Pseudomonas aeruginosa. Description: Binding affinity to Pseudomonas aeruginosa LasR D73N mutant expressed in Escherichia coli at 100 uM measured after 6 hrs by luminescence assay. The following applies: filed as activator.

From ChEMBL document CHEMBL4842305, “Bifunctional Doscadenamides Activate Quorum Sensing in Gram-Negative Bacteria and Synergize with TRAIL to Induce Apoptosis in Cancer Cells” (2021) come the findings set out here.

SMILES strings stand for the structures. Calls of active or inactive are those of the source. No cut-off for these calls is given here.

In the case of `C=CCCCC[C@@H](C)C(=O)NCCCC[C@H]1C(OC)=CC(=O)N1C(=O)[C@H](C)CCCCC=C`, the result in the test with Vibrio harveyi [1] was Active. Moreover, the results for the Activity with MDA-MB-231 [2] and with MDA-MB-231 [3] were 0.31 and 0.08, respectively.

As to `CCCCCC[C@@H](C)C(=O)N1C(=O)C=C(OC)[C@@H]1CCCCNC(=O)OC(C)(C)C`, in the test with MDA-MB-231 [4], the result was Active. In addition, the fold change (FC) in test [5] was determined as 5. The Activity in the test on MDA-MB-231 [2] was determined as 0.26; with MDA-MB-231 [3] it was 0.14.

In the case of `CCCCCCCCCC(=O)CC(=O)N[C@H]1CCOC1=O`, the Activity in the test with MDA-MB-231 [2] is reported as 0.05; with MDA-MB-231 [3], -0.07.

As for `C=CCCCC[C@@H](C)C(=O)N1C(=O)C=C(OC)[C@@H]1CCCCNC(=O)OC(C)(C)C`, the fold change (FC) in [5] is 4. In addition, the Activity in the test with MDA-MB-231 [2] is given as 0.06; in the test with MDA-MB-231 [3], 0.02.

In the case of `C#CCCCC[C@@H](C)C(=O)NCCCC[C@H]1C(OC)=CC(=O)N1C(=O)[C@H](C)CCCCC#C`, the result (in the test with Vibrio harveyi [6]; in test [7]; in the test on Pseudomonas aeruginosa [8]; in the test with Pseudomonas aeruginosa [9]; in the test with Pseudomonas aeruginosa [10]) was Active. Moreover, the fold change (FC) in [5] came to 3. The Activity in the test on MDA-MB-231 [2] is reported as 0.08; in the test on MDA-MB-231 [3] it was 0.01.

`CCCCCC[C@@H](C)C(=O)NCCCC[C@H]1C(OC)=CC(=O)N1C(=O)[C@H](C)CCCCCC`: the results for the Activity in the test on MDA-MB-231 [2] and in the test on MDA-MB-231 [3] were 0.31 and 0.23, respectively.

Consider `C#CCCCC[C@@H](C)C(=O)NCCCC[C@@H]1NC(=O)C=C1OC`, for which the outcome in test [5] was inactive. Besides, the Activity in the test on MDA-MB-231 [2] stood at 0.02; with MDA-MB-231 [3], 0.

Consider `C#CCCCC[C@@H](C)C(=O)N1C(=O)C=C(OC)[C@@H]1CCCCNC(=O)OC(C)(C)C`, for which, in the test with Vibrio harveyi [6], the result was Active. The fold change (FC) in test [5] came to 3. Moreover, the Activity was 0.18 with MDA-MB-231 [2] and 0.05 in the test with MDA-MB-231 [3].
